Measurements reported in patent publication US8404677B2, “Kinase inhibitors” (Genosco, priority 2009, dated 2013).

Experiments:
truncated human LRRK2 = truncated human LRRK2 (Homo sapiens, UniProt Q5S007); test: Inhibition of enzymatic kinase activity (LANCE Ulight); format: biochemical
Experimental: (§1) Inhibition of Enzymatic SYK, ZAP70, PYK2, FAK, PIM1, RET, FLT3, JAK2 and LRRK2 Kinase Activity
(§2) Compounds of the invention were initially diluted to 10 mM in 100% DMSO (CALBIOCHEM™) for storage and made into kinase buffer solution to create a compound concentration ranging from 1 uM and 10 uM. Serial dilutions of compounds of the invention were dispensed into a 96-well plate (GREINER BIOSCIENCES™) at 6 μL each. Purified full-length human SYK, ZAP70, PIM1, PYK2 and truncated human FAK, RET, FLT3, JAK2, and LRRK2 (CARNA BIOSCIENCES™) were diluted in kinase buffer and added to the compound solutions and pre-incubated for 30 minutes at room temperature (1 hour for PYK2). […] The reaction mixture was incubated for 1 hour (2 hours for PYK2). Following the incubation, the stop solution made with EDTA, water, and Lance detection buffer ([…]™) was added (12 μL each) to stop phosphorylation.

[1] = system: SN4741 cells overexpressing LRRK2 G2019S; test: Neuroprotection from LRRK2-mediated dopaminergic cell death (H2O2, crystal violet); format: cell-based, murine; details: for Percent Cell Death: 100 μM hydrogen peroxide
Experimental: (§3) SN4741, a murine dopaminergic cell line were cultured in DMEM containing 10 FBS at 37° C., respectively. SN4741 cells (1.5×10^4/well) were seeded in 48 well plates 1 day before transient transfection with 1 μg of the pcDNA3.1 plasmids of either vector, LRRK wildtype cDNA, LRRK G2019S cDNA, by standard CaCl2 precipitation. Two days after transfection, cells were treated with 100 μM hydrogen peroxide for 1 day and cell viability was measured by crystal violet assay. For compound treatment, the test compounds were added at 0.05 μM, 0.5 μM and 5 μM and the cells were incubated for 1 hour prior to the addition of hydrogen peroxide.
(§4) SN4741 cells were transfected with plasmids containing the LRRK2 wild-type or G2019S and incubated them for 2 days followed by addition of 100 μM of hydrogen peroxide for 24 h to sensitize them to oxidative stress. Cell survival was assessed using the crystal violet.

[2] = system: SN4741 cells overexpressing LRRK2 wild-type; test: as above; format: cell-based, murine; details: for Percent Cell Death: LRRK2 WT, 100 μM hydrogen peroxide
Experimental: as §3, §4

[3] = system: SN4741 cells transfected with vector; test: as above; format: cell-based, murine; details: 100 μM hydrogen peroxide
Experimental: as §3, §4

truncated human FLT3 = target: T1, truncated human FLT3 (Homo sapiens, UniProt P36888); test: Inhibition of enzymatic kinase activity (LANCE Ulight); format: biochemical
T1 construct: truncated human FAK, RET, FLT3, JAK2, and LRRK2 (CARNA BIOSCIENCES™); purchased Carna Biosciences
T1 sequence (P36888 564-993 limits assumed): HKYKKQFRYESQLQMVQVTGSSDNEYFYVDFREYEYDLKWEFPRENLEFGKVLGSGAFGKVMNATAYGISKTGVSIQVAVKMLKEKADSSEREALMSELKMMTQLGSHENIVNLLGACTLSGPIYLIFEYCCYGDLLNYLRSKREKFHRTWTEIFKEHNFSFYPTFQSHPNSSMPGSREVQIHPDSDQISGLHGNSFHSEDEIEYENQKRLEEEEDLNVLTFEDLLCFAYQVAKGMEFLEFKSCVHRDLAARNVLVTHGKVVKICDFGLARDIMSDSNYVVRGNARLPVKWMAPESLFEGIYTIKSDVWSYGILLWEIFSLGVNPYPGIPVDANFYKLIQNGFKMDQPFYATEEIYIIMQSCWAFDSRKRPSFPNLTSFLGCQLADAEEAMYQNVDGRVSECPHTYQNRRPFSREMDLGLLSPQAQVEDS
Experimental: as §1, §2

truncated human JAK2 = target: T2, truncated human JAK2 (Homo sapiens, UniProt O60674); test: as above; format: biochemical
T2 construct: truncated human FAK, RET, FLT3, JAK2, and LRRK2 (CARNA BIOSCIENCES™); purchased Carna Biosciences
Experimental: as §1, §2

truncated human RET = target: T3, truncated human RET (Homo sapiens, UniProt P07949); test: as above; format: biochemical
T3 construct: truncated human FAK, RET, FLT3, JAK2, and LRRK2 (CARNA BIOSCIENCES™); purchased Carna Biosciences
T3 sequence (P07949 658-1114 limits assumed): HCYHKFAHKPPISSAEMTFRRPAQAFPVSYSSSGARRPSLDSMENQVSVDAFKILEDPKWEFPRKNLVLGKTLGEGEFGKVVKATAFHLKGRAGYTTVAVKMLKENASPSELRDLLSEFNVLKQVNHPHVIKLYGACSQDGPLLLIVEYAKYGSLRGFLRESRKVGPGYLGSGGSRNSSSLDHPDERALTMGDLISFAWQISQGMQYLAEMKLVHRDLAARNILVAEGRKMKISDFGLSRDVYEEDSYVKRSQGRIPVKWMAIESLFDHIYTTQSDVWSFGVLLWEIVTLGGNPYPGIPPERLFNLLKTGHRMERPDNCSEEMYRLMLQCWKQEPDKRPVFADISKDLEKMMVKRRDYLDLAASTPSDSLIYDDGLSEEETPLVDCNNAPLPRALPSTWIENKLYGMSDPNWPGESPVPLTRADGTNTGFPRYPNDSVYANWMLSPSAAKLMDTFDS
Experimental: as §1, §2

[4] = system: HEL cells expressing human JAK2 V617F; test: Cell viability assay: JAK2 inhibition; format: cell-based; details: for IC50: Homo sapiens, 72-hour incubation
Experimental: Compounds of the invention were tested for cell viability effect on HEL cells. For cell viability assay, HEL cells expressing human JAK2 V617F were obtained from the American Type Culture Collection (ATCC, Manassas, Va.). This cell line was maintained with an Roswell Park Memorial Institute (RPMI) medium (HyClone™) containing 10 bovine calf serum (BCS; Hyclone™) supplemented iron. The HEL cells were seeded at 2×10^4 cells in 96 well culture plates, and serially diluted compound was then added. After a 72-hour incubation period at 37° C., Cell viability was measured using the ATPLite 1 step assay (Perkin-Elmer™) that is based on the quantification of ATP from viable cells. CellTiter Aqueous assay (Promega™) was also performed in parallel as an orthogonal assay. IC50 values were calculated using nonlinear regression and defined as the concentration needed for a 50 reduction in luminescence or absorbance treated versus untreated control cells (Prism™ Software).

[5] = system: TNF-α release in THP-1 cells, LPS stimulation; test: SYK independent TNF-α release assay (LPS stimulation); format: cell-based, human; details: Homo sapiens; LPS stimulation, At 1 μM, THP-1; read-out: Inhibition of TNF-α Release (percentage inhibition)
Experimental: For SYK independent TNF-α release assay (i.e., via lipopolysaccharide (LPS)-stimulation), THP-1 cells derived from human monocytic cells were obtained from the American Type Culture Collection (ATCC, Manassas, Va.). This cell line was maintained with an RPMI medium (GIBCO™) containing 10 fetal bovine serum (FBS, GIBCO™) and 0.05 mM 2-mercaptoethanol. The THP-1 cells were seeded at 1×10^5 cells/100 μL/well into 96-well culture plates, and treated with lipopolysaccharide (1 μg/ml), and serially diluted compound was then added. After an 18-hour incubation period at 37° C., supernatants were collected for the determination of the TNF-α level by ELISA, and the remaining cells were subjected to an MTT assay to determine the cytotoxic effects of compound.

T2 sequence (O60674 826-1132 limits assumed): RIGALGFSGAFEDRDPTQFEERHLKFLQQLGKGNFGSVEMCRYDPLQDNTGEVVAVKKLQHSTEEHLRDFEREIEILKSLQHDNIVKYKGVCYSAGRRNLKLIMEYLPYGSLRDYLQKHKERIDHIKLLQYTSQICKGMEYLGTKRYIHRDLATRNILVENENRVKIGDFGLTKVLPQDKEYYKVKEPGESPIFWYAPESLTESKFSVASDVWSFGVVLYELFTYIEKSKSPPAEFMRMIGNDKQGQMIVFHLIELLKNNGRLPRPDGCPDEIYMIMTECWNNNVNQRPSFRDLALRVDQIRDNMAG
truncated human LRRK2, sequence (Q5S007 1879-2138 limits assumed): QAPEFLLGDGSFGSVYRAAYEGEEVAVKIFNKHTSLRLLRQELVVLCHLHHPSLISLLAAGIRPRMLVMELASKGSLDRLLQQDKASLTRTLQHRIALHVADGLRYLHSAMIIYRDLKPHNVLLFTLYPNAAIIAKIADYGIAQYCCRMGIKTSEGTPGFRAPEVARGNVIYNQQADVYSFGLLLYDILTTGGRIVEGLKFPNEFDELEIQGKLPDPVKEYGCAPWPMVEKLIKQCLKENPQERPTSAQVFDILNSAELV

With `O=c1[nH]ccc2nc(N3CCC(O)CC3)nc(Nc3cc(C(F)(F)F)cc(C(F)(F)F)c3)c12` [Compound 102, 4-(3,5-bis(trifluoromethyl)phenylamino)-2-(4-hydroxypiperidin-1-yl)pyrido[4,3-d]pyrimidin-5(6H)-one] as the compound, how does the IC50 (truncated human LRRK2) read?
Its IC50 is 325 nM.

What about the “Percent Cell Death” value ([1]; 0.05 uM) of the same compound?
The value was 54.9%.

What about the “Percent Cell Death” value ([1]; 0.5 uM) of the same compound?
The value was 56.0%.

And the “Percent Cell Death” value ([1]; 5 uM)?
The value was 44.0%.

And the “protective effects against LRRK2-associated cell death” value ([1]; at 0.05 uM and higher, vs vector, DMSO or H2O2 controls)?
The value was “increased protective effects”.

And the “Percent Cell Death” value ([2]; 0.05 uM)?
The value was 49.9%.

What about the “Percent Cell Death” value ([2]; 0.5 uM) of the same compound?
Its value is 55.3%.

What about the “Percent Cell Death” value ([2]; 5 uM) of the same compound?
The value was 46.5%.

What about the “protective effects against LRRK2-associated cell death” value ([2]; LRRK2 wild-type, at 0.05 uM and higher, vs vector, DMSO or H2O2 controls) of the same compound?
Its value is “increased protective effects”.

What about the “Percent Cell Death” value ([3]; 0.05 uM) of the same compound?
Its value is 50.0%.

And the “Percent Cell Death” value ([3]; 0.5 uM)?
The value was 54.4%.

And the “Percent Cell Death” value ([3]; 5 uM)?
The value was 50.5%.

With `O=c1[nH]ccc2nc(N3CCC(CO)CC3)nc(Nc3ccc(N4CCS(=O)(=O)CC4)cc3)c12` [Compound 137] as the compound, how does the IC50 (truncated human FLT3) read?
The IC50 was 12.4 nM.

What about the IC50 (truncated human JAK2) of the same compound?
The IC50 was 1.6 nM.

And the IC50 (truncated human RET)?
The IC50 was 5.8 nM.

And the “inhibition level compared with Sorafenib” value [4]?
The value was “inhibition level greater than those exhibited by Sorafenib”.

What about the IC50 [4] of the same compound?
The IC50 was 89 nM.

`O=c1[nH]ccc2nc(N3CCC(CO)CC3)nc(Nc3ccc(N4CCOCC4)cc3)c12` [Compound 139, 2-(4-(hydroxymethyl)piperidin-1-yl)-4-(4-morpholinophenylamino)pyrido[4,3-d]pyrimidin-5(6H)-one] was tested. Which IC50 (truncated human FLT3) did it give?
Its IC50 is 9.1 nM.

What about the IC50 (truncated human JAK2) of the same compound?
Its IC50 is 1.6 nM.

And the IC50 (truncated human RET)?
Its IC50 is 4.1 nM.

What about the “inhibition level compared with Sorafenib” value [4] of the same compound?
Its value is “inhibition level greater than those exhibited by Sorafenib”.

What about the “times higher inhibition in IC50 than Sorafenib” value [4] of the same compound?
Its value is “about 10 time”.

What about the IC50 [4] of the same compound?
Its IC50 is 152 nM.

For `C[C@@H]1C[C@H]2[C@@H]3CCC4=CC(=O)C=C[C@]4(C)[C@@]3(F)[C@@H](O)C[C@]2(C)[C@@]1(O)C(=O)CO` [Dexamethasone, reference compound], which inhibition at 1 µM [5] is on record?
The inhibition at 1 µM was 68.4%.
